The assay deals with SAUR 9218. Description: MIC Test Method, standard agar dilution. Type of assay: cell-based. The conditions noted are these: agar dilution, Mueller Hinton agar, incubated overnight at 35° C.; lowest concentration that inhibits visible growth; read-out: SAUR 9218 MIC. A digest of the protocol: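 Agar dilution in Mueller Hinton agar with serial 2-fold compound dilutions. Staphylococcus aureus strain 9218 spotted at approximately 10^4 to 10^5 cells per spot, incubated overnight at 35 °C; MIC (μg/ml) is the lowest concentration preventing visible growth.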
On the technique in general: In agar dilution, organisms are placed on agar that contains the substance at set levels.

The values below come from patent US20040110802A1, “Antibacterial benzoic acid derivatives” (priority 2002, published 2004).

Converted amounts (≈) assume the structure as drawn.

Take `Cc1c(S(=O)(=O)NC2CCN(Cc3ccccc3)CC2)csc1C(=O)Nc1ccc(Br)cc1C(=O)O`: the minimal inhibitory concentration (MIC) is more than 128 mg/L.

For `Cc1sc(C(=O)Nc2ccc(Br)cc2C(=O)O)cc1S(=O)(=O)N1CCN(c2ccc(Cl)cc2)CC1`, the minimal inhibitory concentration (MIC) was more than 128 mg/L.

For the compound `Cc1sc(C(=O)Nc2ccc(Br)cc2C(=O)O)cc1S(=O)(=O)NC1Cc2ccccc2C1`, the MIC worked out at 8 mg/L (≈ 14.9 µM).

As to `O=C(O)c1cc(Br)ccc1NC(=O)c1ncccc1C(=O)c1ccccc1`, the minimum inhibitory concentration (MIC) is more than 128 mg/L.

For the compound `CC(C)CN1C(=O)c2ccc(C(=O)Nc3ccc(Br)cc3C(=O)O)cc2C1=O`, the minimal inhibitory concentration (MIC) worked out at 2 mg/L (≈ 4.49 µM).

As to `O=C(Nc1ccc(Br)cc1C(=O)O)c1ccc2c(c1)C(=O)N(CC1CCCO1)C2=O` (stereo not drawn), the minimum inhibitory concentration (MIC) amounted to 8 mg/L (≈ 16.9 µM).

`Cn1c(C(=O)Nc2ccc(C#N)cc2C(=O)O)cc2cccc(NS(=O)(=O)CCCCl)c21`: the MIC worked out at 0.125 mg/L (≈ 0.263 µM).

On to `Cc1noc(C)c1S(=O)(=O)Nc1cccc2cc(C(=O)Nc3ccc(C#N)cc3C(=O)O)n(C)c12`, for which the MIC was determined as 0.25 mg/L (≈ 0.507 µM).

`Cn1c(C(=O)Nc2ccc(C#N)cc2C(=O)O)cc2cccc(C(OOSc3cnc(Cl)c(Br)c3)S(=O)(=O)c3cnc(Cl)c(Br)c3)c21` (stereo not drawn): the minimum inhibitory concentration (MIC) is 0.03 mg/L (≈ 0.0356 µM).

Take `Cn1c(C(=O)Nc2ccc(C#N)cc2C(=O)O)cc2cccc(NS(C)(=O)=O)c21`: the minimum inhibitory concentration (MIC) is 0.5 mg/L (≈ 1.21 µM).

As for `CON=C1CCn2c(C(=O)Nc3ccc(C#N)cc3C(=O)O)cc3cccc1c32`, the minimal inhibitory concentration (MIC) worked out at 1 mg/L (≈ 2.57 µM).

For the compound `N#Cc1ccc(NC(=O)c2cc3cccc4c3n2CC/C4=N\OCc2ccccc2)c(C(=O)O)c1`, the MIC was determined as 0.5 mg/L (≈ 1.08 µM).

On to `N#Cc1ccc(NC(=O)c2cc3cccc4c3n2CC/C4=N\Oc2ccccc2)c(C(=O)O)c1`, for which the MIC is 2 mg/L (≈ 4.44 µM).

Turning to `CCCS(=O)(=O)Nc1cccc2cc(C(=O)Nc3ccc(C#N)cc3C(=O)O)n(C)c12`, the minimum inhibitory concentration (MIC) stood at 0.5 mg/L (≈ 1.14 µM).

On to `Cc1nc(C)c(S(=O)(=O)Nc2cccc3cc(C(=O)Nc4ccc(C#N)cc4C(=O)O)n(C)c23)s1`, for which the minimal inhibitory concentration (MIC) came to 0.5 mg/L (≈ 0.981 µM).

`Cn1c(C(=O)Nc2ccc(C#N)cc2C(=O)O)cc2cccc(NS(=O)(=O)CS(C)(=O)=O)c21`: the MIC turned out to be 2 mg/L (≈ 4.08 µM).

`CCCCNCC(O)COc1cccc2cc(C(=O)Nc3ccc(C#N)cc3C(=O)O)n(C)c12.Cl` (stereo not drawn): the minimum inhibitory concentration (MIC) is 0.5 mg/L.

Turning to `Cn1c(C(=O)Nc2ccc(C#N)cc2C(=O)O)cc2cccc(OCC(O)COCCOc3ccccc3)c21` (stereo not drawn), the MIC stood at 0.5 mg/L (≈ 0.944 µM).

Consider `CC(C)=CCOCC(O)COc1cccc2cc(C(=O)Nc3ccc(C#N)cc3C(=O)O)n(C)c12` (stereo not drawn), for which the minimal inhibitory concentration (MIC) stood at 0.5 mg/L (≈ 1.05 µM).

In the case of `Cn1c(C(=O)Nc2ccc(C#N)cc2C(=O)O)cc2cccc(OCC(O)COCC(O)CO)c21` (stereo not drawn), the minimum inhibitory concentration (MIC) is 2 mg/L (≈ 4.14 µM).

In the case of `C#CCCOCC(O)COc1cccc2cc(C(=O)Nc3ccc(C#N)cc3C(=O)O)n(C)c12` (stereo not drawn), the MIC turned out to be 0.5 mg/L (≈ 1.08 µM).

In the case of `CCN(C(C)=O)c1ccc2onc(C(=O)Nc3ccc(C#N)cc3C(=O)O)c2c1`, the minimal inhibitory concentration (MIC) was determined as 0.25 mg/L (≈ 0.637 µM).

As to `CC(C)N(c1ccc2onc(C(=O)Nc3ccc(C#N)cc3C(=O)O)c2c1)S(C)(=O)=O`, the MIC came to 0.125 mg/L (≈ 0.283 µM).

Take `CN(C)S(=O)(=O)Nc1ccc2onc(C(=O)Nc3ccc(C#N)cc3C(=O)O)c2c1`: the MIC is 0.5 mg/L (≈ 1.16 µM).

`N#Cc1ccc(NC(=O)c2noc3cc(Br)ccc23)c(C(=O)O)c1`: the MIC is 0.5 mg/L (≈ 1.29 µM).

`CC(=O)Nc1ccccc1-c1ccc2c(C(=O)Nc3ccc(C#N)cc3C(=O)O)noc2c1`: the MIC was 0.5 mg/L (≈ 1.14 µM).

Take `CC(=O)Nc1cccc(-c2ccc3c(C(=O)Nc4ccc(C#N)cc4C(=O)O)noc3c2)c1`: the MIC was found to be 0.015 mg/L (≈ 0.0341 µM).

Consider `CCO/N=C1\CCn2c(C(=O)Nc3ccc(C#N)cc3C(=O)O)cc3cccc1c32`, for which the MIC came out at 1 mg/L (≈ 2.49 µM).

Consider `CC(C)(C)O/N=C1\CCn2c(C(=O)Nc3ccc(C#N)cc3C(=O)O)cc3cccc1c32`, for which the minimal inhibitory concentration (MIC) was found to be 1 mg/L (≈ 2.32 µM).

Regarding `N#Cc1ccc(NC(=O)c2cc3cccc4c3n2CC/C4=N\O)c(C(=O)O)c1`, the MIC was 0.25 mg/L (≈ 0.668 µM).

As to `N#Cc1ccc(NC(=O)c2nsc3ccccc23)c(C(=O)O)c1`, the MIC stood at 1 mg/L (≈ 3.09 µM).

With `N#Cc1ccc(NC(=O)C2=NS(=O)(=O)c3ccccc32)c(C(=O)O)c1`, the minimum inhibitory concentration (MIC) was more than 128 mg/L.

On to `Cl.Cn1c(C(=O)Nc2ccc(C#N)cc2C(=O)O)cc2cccc(OCC(O)Cn3ccnc3)c21` (stereo not drawn), for which the minimal inhibitory concentration (MIC) amounted to 0.5 mg/L.

Take `COCC(C)NCC(O)COc1cccc2cc(C(=O)Nc3ccc(C#N)cc3C(=O)O)n(C)c12.Cl` (stereo not drawn): the MIC was 1 mg/L.

With `Cl.Cn1c(C(=O)Nc2ccc(C#N)cc2C(=O)O)cc2cccc(OCC(O)CNCC(O)c3ccccc3)c21` (stereo not drawn), the minimal inhibitory concentration (MIC) is 1 mg/L.

Regarding `Cl.Cn1c(C(=O)Nc2ccc(C#N)cc2C(=O)O)cc2cccc(OCC(O)CNCc3cccs3)c21` (stereo not drawn), the minimal inhibitory concentration (MIC) was 0.5 mg/L.

As for `Cl.Cn1c(C(=O)Nc2ccc(C#N)cc2C(=O)O)cc2cccc(OCC(O)CNc3ccccc3)c21` (stereo not drawn), the minimal inhibitory concentration (MIC) was 0.125 mg/L.

Turning to `Cl.Cn1c(C(=O)Nc2ccc(C#N)cc2C(=O)O)cc2cccc(OCC(O)CN3CCOCC3)c21` (stereo not drawn), the MIC turned out to be 1 mg/L.

Consider `Cc1nc(S(=O)(=O)Nc2cccc3cc(C(=O)Nc4ccc(C#N)cc4C(=O)O)n(C)c23)cn1C`, for which the MIC was found to be 1 mg/L (≈ 2.03 µM).

Regarding `O=C(Nc1ccc(Br)cc1C(=O)O)C1=NS(=O)(=O)c2ccccc21`, the MIC is more than 128 mg/L.

As for `O=C(O)c1cc(Br)ccc1NC(=O)c1nsc2ccccc12`, the minimal inhibitory concentration (MIC) came to 1 mg/L (≈ 2.65 µM).

For `COCC(O)COc1cccc2cc(C(=O)Nc3ccc(C#N)cc3C(=O)O)n(C)c12` (stereo not drawn), the minimum inhibitory concentration (MIC) was determined as 0.5 mg/L (≈ 1.18 µM).

Take `CCOCC(O)COc1cccc2cc(C(=O)Nc3ccc(C#N)cc3C(=O)O)n(C)c12` (stereo not drawn): the MIC is 0.25 mg/L (≈ 0.571 µM).

For the compound `Cn1c(C(=O)Nc2ccc(C#N)cc2C(=O)O)cc2cccc(OCC(O)CCl)c21` (stereo not drawn), the MIC was 0.25 mg/L (≈ 0.584 µM).

As to `Cn1c(C(=O)Nc2ccc(C#N)cc2C(=O)O)cc2cccc(NC(=O)Cc3ccncc3)c21.O=C(O)C(F)(F)F`, the MIC was found to be 1 mg/L.

In the case of `N#Cc1ccc(NC(=O)c2noc3ccc(-c4ccccc4CO)cc23)c(C(=O)O)c1`, the MIC came out at 0.5 mg/L (≈ 1.21 µM).

As for `CS(=O)(=O)N(c1ccc2onc(C(=O)Nc3ccc(C#N)cc3C(=O)O)c2c1)S(C)(=O)=O`, the minimal inhibitory concentration (MIC) turned out to be 0.125 mg/L (≈ 0.261 µM).

With `N#Cc1ccc(NC(=O)c2noc3cc(-c4cccc(CO)c4)ccc23)c(C(=O)O)c1`, the MIC was 0.125 mg/L (≈ 0.302 µM).

Regarding `CS(=O)(=O)Nc1ccc(-c2cc3onc(C(=O)Nc4ccc(C#N)cc4C(=O)O)c3cc2NS(C)(=O)=O)c(C(F)(F)F)c1`, the MIC was 0.125 mg/L (≈ 0.196 µM).

With `CCCN(CCC)S(=O)(=O)c1ccc(C(=O)Nc2ccc(Br)cc2C(=O)O)cn1`, the minimal inhibitory concentration (MIC) was 8 mg/L (≈ 16.5 µM).

On to `CN(c1ccc(Cl)cc1)S(=O)(=O)c1csc(C(=O)Nc2ccc(Br)cc2C(=O)O)c1`, for which the MIC was found to be 8 mg/L (≈ 15.1 µM).

With `CN(c1ccc(Cl)cc1)S(=O)(=O)c1ccc(C(=O)Nc2ccc(Br)cc2C(=O)O)s1`, the MIC turned out to be 2 mg/L (≈ 3.77 µM).

As for `CN(c1ccc(Cl)cc1)S(=O)(=O)c1ccc(C(=O)Nc2ccc(Br)cc2C(=O)O)o1`, the MIC came out at 16 mg/L (≈ 31.1 µM).

With `O=C(Nc1ccc(Br)cc1C(=O)O)c1c[nH]c(SCc2ccccc2)n1`, the MIC was more than 128 mg/L.

For `Cc1sc(C(=O)Nc2ccc(Br)cc2C(=O)O)cc1S(=O)(=O)N(C)c1ccc(Cl)cc1`, the minimum inhibitory concentration (MIC) turned out to be 2 mg/L (≈ 3.68 µM).

On to `Cc1c(S(=O)(=O)N(C)c2ccc(Cl)cc2)csc1C(=O)Nc1ccc(Br)cc1C(=O)O`, for which the MIC is 8 mg/L (≈ 14.7 µM).

For the compound `O=C(Nc1ccc(Br)cc1C(=O)O)c1cccs1`, the MIC was more than 128 mg/L.

Take `O=C(Nc1ccc(Br)cc1C(=O)O)c1ccnc(SCc2ccccc2)c1`: the MIC stood at 2 mg/L (≈ 4.51 µM).

As to `CN(c1ccc(Cl)cc1)S(=O)(=O)c1cncc(C(=O)Nc2ccc(Br)cc2C(=O)O)c1`, the MIC amounted to 1 mg/L (≈ 1.91 µM).

Turning to `CN(c1ccc(Cl)cc1)S(=O)(=O)c1cc(C(=O)Nc2ccc(Br)cc2C(=O)O)c[n+]([O-])c1`, the minimal inhibitory concentration (MIC) is 8 mg/L (≈ 14.8 µM).

The term MIC denotes the smallest concentration in the dilution series that meets the test's criterion for growth inhibition.
